Data published in patent US10695341B2, “Compositions and methods for treating endometriosis” (UNIVERSITY OF SOUTH FLORIDA, priority 2014, dated 2020).

Assays:
[1] = tested on: Life-extended endometriotic (IE) cells; test: Crystal violet growth/survival of life-extended endometriotic (IE) cells treated with chloroquine; assay type: cell-based, human; settings: 25 μM chloroquine, up to about 96 hours, crystal violet absorbance
Experimental: Life-extended endometriotic (IE) cells were treated with 25 μM chloroquine for up to about 96 hours. Cells were then stained with crystal violet and measured for overall growth at an absorbance of […], using a Bioteck plate reader.

LC3-II = LC3-II levels in IE cells after chloroquine; assay type: cell-based, human; settings: chloroquine treatment

Compound: CCN(CC)CCCC(C)Nc1ccnc2cc(Cl)ccc12 (centres unmarked) [chloroquine]
- cellular survival [1]: dramatically inhibited
- LC3-II levels (LC3-II): marked increase
